Results taken from patent US10314785B2, “Sterile pharmaceutical compositions” (NORTON HEALTHCARE LTD, priority 2004, dated 2019).
In brackets after ≈: the same amount, converted by molar mass.

Legend:
[1] = Water solubility of budesonide at sterilizing temperatures; format: physicochemical
Method: A balance is required between the solubility of the glucocorticosteroid and the amount of the glucocorticosteroid used per unit of solvent such that at least 50% of the glucocorticosteroid is suspended in the solvent. For example, for budesonide, at the sterilizing temperatures used herein the water solubility is about 7 mg/ml. Therefore, using 15 mg of budesonide per […] provides 53% of budesonide as a suspension. Preferably at least 60% of the glucocorticosteroid is suspended in the solvent although this value could be at least 70% or at least 80%.

[2] = Heat sterilization of beclomethasone dipropionate concentrates: content, impurities, particle size; format: physicochemical; conditions: 121/30, data not shown
Method: Determination of impurity levels and particle size were also determined as outlined above.

[3] = suspensions sterilized by a wet steam process; cited from earlier work

fraction of budesonide suspended ([1]; using 15 mg of budesonide per 1 mg water) [%] | solubility ([1]; water, at the sterilizing temperatures used herein) [µg/mL] | change in beclomethasone content upon heating in the autoclave [2] | change in particle size distribution on autoclaving [2] | SMILES | increase in impurities upon heating in the autoclave [2] | decrease in active ingredient content [3] | increase in degradation products [3]
53 | ~7000 (≈ 16.3 mM) |  |  | CCCC1O[C@@H]2C[C@H]3[C@@H]4CCC5=CC(=O)C=C[C@]5(C)[C@H]4[C@@H](O)C[C@]3(C)[C@]2(C(=O)CO)O1 (stereo partly shown) [budesonide] |  |  | 
 |  | no significant change | no significant change | CCC(=O)OCC(=O)[C@@]1(OC(=O)CC)[C@@H](C)C[C@H]2[C@@H]3CCC4=CC(=O)C=C[C@]4(C)[C@@]3(Cl)[C@@H](O)C[C@@]21C [beclomethasone, beclomethasone dipropionate] | no significant change in beclomethasone content or increase in impurities | 8-9% | 10-11%
